In US20230331792A1, “NEW MULTI-FUNCTIONAL OLIGOPEPTIDES” (ENLITISA (SHANGHAI) PHARMACEUTICAL CO., LTD., priority 2019, published 2023):
Square brackets hold non-standard residues; d marks the D form. Ends that are not written are not given here. Dopa = N[C@@H](Cc1ccc(O)c(O)c1)C(=O)O; Hyp = O=C(O)[C@@H]1C[C@@H](O)CN1

What was measured:
Type in all cases: in vivo
[1] = test system: db/db mice; assay: Diabetic wound model, VEGF and TGF-β1 content in wound tissues; settings: topical once daily; 1.65, 16.45, 164.5 μg/wound/day; vs model group
Experimental: 8 to 12 week old male db/db mice (C57BL/KsJ-db/db, with a body weight of 35-45 g/mouse) supplied by Changzhou Cvens Experimental Animal Co. Ltd. Prior to any experiments being conducted, mice were housed under standardized conditions at a constant temperature of 22±2° C., with alternating 12-hour periods of light and darkness, and were fed on a standard mouse diet with water, for about a week.
General anesthesia was induced using intraperitoneal 3% chloral hydrate (Sinopharm Chemical Reagent Co., Ltd.; 1 mL/10 g of body weight). The hair on the back was shaved by a baby hair shaver and depilated with cream. The skin area was wiped and sterilized with 75% alcohol twice.
An EMS skin biopsy punch with an 18 mm diameter was used to make a round wound on the back. The full thickness of skin was removed, and the depth of the wound reached the fascia. Wounds were left open without a suture.
The model group was given same amount of normal saline. There were 12 mice in each group apart from the control group, which had 8 mice. The skin pieces taken during wound creation were used as the samples at Day 7 for the control group.
Recombinant Human Epidermal Growth Factor (rhEGF) was purchased and prepared according to the instructions by the manufacturer. The lyophilized rhEGF powder (100000 IU/vial) was dissolved in 20 mL of normal saline to make a solution with a concentration of 5000 IU/mL. The working dose of rhEGF for this experiment was 1285 IU/wound.
Compound A and Compound B were dissolved in saline at concentrations indicated in Table 7 below (L=low dose, M=medium dose, H=high dose). 50 μL of each solution was applied to the wound surfaces every day.
Vascular endothelial growth factor (VEGF) and transforming growth factor-beta 1 (TGF-β1) play prominent roles in wound healing process. VEGF and TGF-β1 are often co-expressed in tissues in which angiogenesis occurs.

[2] = test system: BALB/c mice; assay: Mouse ear swelling model (xylene); settings: for Swelling rate: about 0.1 g on right ear 1 h before xylene; for effect on edema caused by inflammation: hydrogels 0.5 and 1 mg/g
Experimental: 30 Health male BALB/c mice with 6-8 weeks old and average body weight of 18-25 g were supplied by Changzhou Cvens Experimental Animal Co., Ltd. and housed and cared for about 1 week prior to the experiment. […] The mice were randomly divided into 6 groups as described in Table 8, with 5 mice in each group. Compound A and Compound B were dissolved at concentrations indicated in Table 8 below (L=low dose, M=medium dose, H=high dose).
All excipients were obtained from Sinopharm Chemical Reagent Co. Ltd. The gels were made with water for injection.
Dexamethasone acetate cream (Dex cream; 5 mg/10 g (which means that there was 5 mg Dex contained in 10 g of the cream), Fuyuan Pharmaceutical Co., Ltd., Anhui, China) was used as positive control.
The left ear of each mouse was used as an autologous control. The right ear of each mouse was treated with the above compounds in the stated concentrations (Table 8).
About 0.1 g of the various gels, and Dex cream were applied to the right ear of mice in each group, both inside and outside. The blank gel base was applied on the ears in the model groups. After 1 hour, 20 μL of xylene (Shanghai Aladdin Bio-Chem Technology Co., Ltd.) was applied to the same ear of each mouse.
The mice were sacrificed by cervical dislocation 40 minutes after xylene application. The left and right ears were cut off. An EMS skin biopsy punch with a diameter of 8 mm was used to take a piece of the ear from the same site on both ears. The weights were recorded, and the swelling rate was calculated as a percentage according to the following formula:
(right ear weight−left ear weight)/left ear weight×100

[3] = test system: Sprague Dawley (SD) rats; assay: Croton oil-induced anal swelling model in rats I (Evans blue content); settings: gel 0.5 and 1 mg/g, 200 μL twice a day for three days
Experimental: A croton oil mixture was prepared by mixing one part distilled water, four parts of pyridine (Nanjing Chemical Reagent Co., Ltd.), five parts of ether (China Pharmaceutical Group Chemical Reagents Co., Ltd.) and ten parts of 6% croton oil (Shanghai Yuanye Biotechnology Co., Ltd.) ether solution.
6-8 weeks old Sprague Dawley (SD) rats with average body weights of 180-220 g were supplied by Changzhou Cvens Experimental Animal Co. Ltd. (Changzhou, Jiangsu Province, China), half male and half female. Prior to any experiments being conducted, rats were housed under standardized conditions (at a constant temperature of 22±2° C., with alternating 12-hour periods of light and darkness) and were fed on a standard mouse diet with water, for about a week.
56 rats were randomly divided into 7 groups (as shown in Table 11 below), with 8 rats in each group. Compound A, Compound B and MaYinglong hemorrhoids ointment were dissolved at concentrations indicated in Table 11 below (L=low dose, M=medium dose, H=high dose).
The rats were anesthetized by isoflurane (China Pharmaceutical Group Chemical Reagents Co., Ltd.) inhalation. 75% alcohol cotton ball was used to disinfect the skin around the anus. […]
All samples were transferred to a 55° C. water bath or a heat block. […] Absorbance was measured at 610 nm, using 500 μL of formamide as a blank. […]

“{[(Ala-Lys-Pro-Ser-Tyr-Hyp-Hyp-Thr-DOPA-Lys)2-Lys]2-Lys}2-Lys (AKPSY[Hyp][Hyp]T[Dopa]KKKK; also: branched lysine dendrimer {[(peptide)2-Lys]2-Lys}2-Lys) [Compound B]” was tested, and the “content of TGF-β1 in wound tissues (FIG. 3)” value [1] was “stimulated the production”, the “content of VEGF in wound tissues (FIG. 2)” value [1] was “stimulated the production” and the Swelling rate ([2]; hydrogel 0.5 mg/g (L)) was 43%. The Swelling rate ([2]; hydrogel 1 mg/g (H)) was 38%, the “effect on edema caused by inflammation” value [2] was “significantly eliminate the edema caused by inflammation” and the “inflammatory swelling, EB content in rectal and anal tissues (FIG. 5)” value [3] was “may reduce inflammatory swelling caused by croton oil application”.
With “{[(Dopa-Ala-Lys-Pro-Ser-Tyr-Hyp-Hyp-Thr-Tyr-Lys)2-Lys]2-Lys}2-Lys ([Dopa]AKPSY[Hyp][Hyp]TYKKKK; also: branched lysine dendrimer {[(peptide)2-Lys]2-Lys}2-Lys) [Compound A]” the “content of TGF-β1 in wound tissues (FIG. 3)” value [1] was “stimulated the production”, the “content of VEGF in wound tissues (FIG. 2)” value [1] was “stimulated the production” and the Swelling rate ([2]; hydrogel 0.5 mg/g (L)) was 63%. For the same substance, the Swelling rate ([2]; hydrogel 1 mg/g (H)) was 43%, the “effect on edema caused by inflammation” value [2] was “significantly eliminate the edema caused by inflammation” and the “inflammatory swelling, EB content in rectal and anal tissues (FIG. 5)” value [3] was “may reduce inflammatory swelling caused by croton oil application”.
